pIC50: −log10 of the molar value. Counter-ions that a name gives are not always drawn.
How the values were obtained:
[1] = target: DNA-PK (Homo sapiens (Human), UniProt P78527); assay: DNA-PK Enzyme-Linked Immunosorbent Assay (phosphorylation of GST-p53 (1-101) peptide); assay type: biochemical; conditions: ELISA
Protocol: Assay of Compounds ATM and DNA-PK Inhibition
remove wash solution, turn plate upside down onto a thin paper towel and centrifuge at 1000 rpm for 1 min to absorb all wash buffer. Clean the bottom of plate with moist lint free paper. Scan plate immediately using ODYSSEY CLx (LI-COR) for the best results. DNA-PK Enzyme-Linked Immunosorbent Assay:
On day one, coat 96-well plate (ThermoFisher. Cat #: 442404) with GST-p53 (1-101) peptide (purified by Pharmaron, BCS department) by diluting 3 μg of GST-p53 each well with 0.1 M Na2CO3/NaHCO3, pH 9.6. Incubate the plate overnight at 4° C. The second day, remove coating buffer, wash 2× with PBST (1×PBS containing 0.1% Tween-20). Then add DNA-PK enzyme solution (Invitrogen, #PR9107A; the final DNA-PK concentration is 0.1 μg/mL), series dilution compounds (the final top concentration is 100 nM, 3 fold series dilution, with total 10 doses) and ATP solution (the final ATP concentration is 20 μM) to the 96-well plate. Incubate the plate at 25° C. for 1 hour. Then wash 3× with PBST (1×PBS containing 0.1% Tween-20). Block the plate with PBST+ 1% BSA at 4° C. overnight. The third day, wash 4× with PBST (1×PBS containing 0.1% Tween-20). Then add Phospho-p53 primary antibody (cell signaling Technology, #9286, Phospho-p53 (Ser15) (16G8) Mouse mAb) (1/1000) to each well. Seal with plate and incubate the plate for 1 h at 37° C. Wash 4× with PBST (1×PBS containing 0.1% Tween-20), add 100 μL of HRP-linked secondary antibody (Cell signaling Technology, #7076, Anti-mouse IgG, HRP-linked Antibody) (1/1000) to each well. Seal with tape and incubate the plate for 30 min at 37° C. Wash 4× with PBST (1×PBS containing 0.1% Tween-20), add 100 μL of TMB (Cell signaling Technology, #7004) substrate to each well. Seal with tape and incubate the plate for 10 min at 37° C. Then add 100 μL of Stop solution (Cell signaling Technology, #7002) to each well. Read the plate at 450 nm to detect absorption.

[2] = target: ATM (Homo sapiens (Human), UniProt Q13315); assay: ATM in Cell Western Assay (pKAP1 in etoposide-treated MCF-7 cells); assay type: cell-based
In short: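 Cells received compounds in a 10-dose, 3-fold series from a 1 μM final top concentration, then 100 μM etoposide, for 1 hr at 37° C. They were then fixed with paraformaldehyde and permeabilized with 0.1% Triton X-100. After immunostaining, plates were scanned on an infrared imager.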

[3] = MCF-7 cells, etoposide 100 μM, 1 hr, pKAP1 readout
[4] = pKAP1 in etoposide-treated MCF-7 cells

Chain of ATM (Q13315 whole entry): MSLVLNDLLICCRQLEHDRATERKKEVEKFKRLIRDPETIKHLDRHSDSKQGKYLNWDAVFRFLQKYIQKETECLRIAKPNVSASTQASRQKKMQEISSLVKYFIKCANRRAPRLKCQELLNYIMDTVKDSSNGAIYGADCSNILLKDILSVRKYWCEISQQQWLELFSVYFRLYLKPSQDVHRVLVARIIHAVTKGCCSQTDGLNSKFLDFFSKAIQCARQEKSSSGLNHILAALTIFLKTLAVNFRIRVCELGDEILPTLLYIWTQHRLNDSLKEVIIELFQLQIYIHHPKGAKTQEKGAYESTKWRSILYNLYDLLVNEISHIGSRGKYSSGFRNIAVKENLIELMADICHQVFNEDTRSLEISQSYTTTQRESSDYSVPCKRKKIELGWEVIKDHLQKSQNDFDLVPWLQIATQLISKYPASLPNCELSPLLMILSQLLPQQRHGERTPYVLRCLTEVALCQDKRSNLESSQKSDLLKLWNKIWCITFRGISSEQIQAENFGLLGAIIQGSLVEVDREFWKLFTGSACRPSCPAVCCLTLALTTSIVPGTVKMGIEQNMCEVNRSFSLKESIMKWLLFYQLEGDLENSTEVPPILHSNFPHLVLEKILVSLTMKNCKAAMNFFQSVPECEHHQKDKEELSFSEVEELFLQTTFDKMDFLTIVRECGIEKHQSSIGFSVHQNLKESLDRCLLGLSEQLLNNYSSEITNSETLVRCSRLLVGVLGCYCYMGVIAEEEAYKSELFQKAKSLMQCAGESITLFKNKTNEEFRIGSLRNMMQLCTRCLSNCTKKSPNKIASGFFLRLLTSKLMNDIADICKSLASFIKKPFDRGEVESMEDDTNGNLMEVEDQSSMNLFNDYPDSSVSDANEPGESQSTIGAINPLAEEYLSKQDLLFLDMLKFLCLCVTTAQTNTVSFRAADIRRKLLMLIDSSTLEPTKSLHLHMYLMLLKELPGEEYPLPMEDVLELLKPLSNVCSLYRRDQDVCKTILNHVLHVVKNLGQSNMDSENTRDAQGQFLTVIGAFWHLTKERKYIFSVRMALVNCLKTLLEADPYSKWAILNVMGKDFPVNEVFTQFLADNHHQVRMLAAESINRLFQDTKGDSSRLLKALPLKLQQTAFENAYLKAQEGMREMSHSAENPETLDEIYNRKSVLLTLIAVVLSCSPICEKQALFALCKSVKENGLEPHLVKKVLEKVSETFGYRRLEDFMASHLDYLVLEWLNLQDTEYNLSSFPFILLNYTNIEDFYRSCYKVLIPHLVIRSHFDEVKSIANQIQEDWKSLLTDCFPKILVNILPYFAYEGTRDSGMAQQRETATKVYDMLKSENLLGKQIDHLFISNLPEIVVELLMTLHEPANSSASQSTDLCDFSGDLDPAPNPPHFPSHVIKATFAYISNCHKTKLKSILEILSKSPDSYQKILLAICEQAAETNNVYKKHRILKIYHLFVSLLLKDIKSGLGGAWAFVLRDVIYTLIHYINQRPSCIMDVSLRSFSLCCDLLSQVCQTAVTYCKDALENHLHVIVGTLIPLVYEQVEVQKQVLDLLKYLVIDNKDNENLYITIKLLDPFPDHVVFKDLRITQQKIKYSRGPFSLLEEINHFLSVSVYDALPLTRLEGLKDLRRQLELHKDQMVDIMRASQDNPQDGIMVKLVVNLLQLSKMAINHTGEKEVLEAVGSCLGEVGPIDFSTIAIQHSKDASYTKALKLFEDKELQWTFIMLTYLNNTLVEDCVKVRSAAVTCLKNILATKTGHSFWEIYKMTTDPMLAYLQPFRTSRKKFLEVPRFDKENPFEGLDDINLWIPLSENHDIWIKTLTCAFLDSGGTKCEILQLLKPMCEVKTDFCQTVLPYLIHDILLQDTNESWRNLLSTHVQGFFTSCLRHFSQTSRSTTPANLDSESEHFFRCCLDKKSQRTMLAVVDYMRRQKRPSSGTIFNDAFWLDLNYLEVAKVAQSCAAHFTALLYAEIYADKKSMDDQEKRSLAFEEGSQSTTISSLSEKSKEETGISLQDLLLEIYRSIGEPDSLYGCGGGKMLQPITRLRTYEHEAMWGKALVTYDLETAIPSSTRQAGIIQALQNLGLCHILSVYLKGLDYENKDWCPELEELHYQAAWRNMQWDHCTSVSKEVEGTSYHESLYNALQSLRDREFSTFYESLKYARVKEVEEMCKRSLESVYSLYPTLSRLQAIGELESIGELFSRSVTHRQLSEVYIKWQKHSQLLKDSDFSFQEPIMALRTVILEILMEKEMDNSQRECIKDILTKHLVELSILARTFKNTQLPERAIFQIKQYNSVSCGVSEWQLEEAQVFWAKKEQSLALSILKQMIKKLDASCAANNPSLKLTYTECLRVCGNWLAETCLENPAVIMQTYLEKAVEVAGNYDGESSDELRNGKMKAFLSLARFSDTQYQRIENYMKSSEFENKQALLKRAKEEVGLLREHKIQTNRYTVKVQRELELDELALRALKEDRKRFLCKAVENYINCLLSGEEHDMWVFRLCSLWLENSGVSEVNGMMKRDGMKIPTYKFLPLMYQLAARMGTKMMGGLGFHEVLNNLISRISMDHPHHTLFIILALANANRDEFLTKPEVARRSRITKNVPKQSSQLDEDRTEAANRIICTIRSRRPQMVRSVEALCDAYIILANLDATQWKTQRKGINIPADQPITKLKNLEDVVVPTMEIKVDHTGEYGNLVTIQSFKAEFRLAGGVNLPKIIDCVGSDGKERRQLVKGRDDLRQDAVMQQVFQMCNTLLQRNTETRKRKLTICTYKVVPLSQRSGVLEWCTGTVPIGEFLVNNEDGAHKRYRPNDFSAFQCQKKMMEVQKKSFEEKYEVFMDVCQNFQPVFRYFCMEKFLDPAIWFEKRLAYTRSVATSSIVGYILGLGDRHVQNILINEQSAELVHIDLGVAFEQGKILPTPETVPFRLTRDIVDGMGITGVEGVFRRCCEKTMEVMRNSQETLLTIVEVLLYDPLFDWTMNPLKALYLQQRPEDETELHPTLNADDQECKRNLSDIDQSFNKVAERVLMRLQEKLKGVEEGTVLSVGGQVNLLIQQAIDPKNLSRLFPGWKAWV

Row | SMILES | pIC50 ([1]; ATP 20 μM) | pIC50 [2, 3] | pIC50 ([1]; 20 μM ATP) | pIC50 [2, 4]
1 | CN(C)CCCOc1ncc(-c2ccc3ncc4c(c3c2)C2(CCC2)C(=O)N4C)cc1NS(=O)(=O)c1cc(F)cc(F)c1 [Example 153, N-(2-(3-(Dimethylamino)propoxy)-5-(3′-methyl-2′-oxo-23′-dihydrospiro[cyclobutane-1,1′-pyrrolo[2,3-c]quinolin]-8′-yl)pyridin-3-yl)-3,5-difluorobenzenesulfonamide] | 9.00 to 9.30 | 7.00 to 9.00 |  | 
2 | CC(C)NCCOc1ncc(-c2cc3c4c(cnc3cc2F)N(C)C(=O)C42CCC2)cc1NS(=O)(=O)N1CC(F)C1 [Example 371, 3-Fluoro-N-(5-(7′-fluoro-3′-methyl-2′-oxo-2′,3′-dihydrospiro[cyclobutane-1,1′-pyrrolo[2,3-c]quinolin]-8′-yl)-2-(2-(isopropylamino)ethoxy)pyridin-3-yl)azetidine-1-sulfonamide] |  |  | 7.00 to 9.00 | 7.00 to 9.00
3 | CNCCOc1ncc(-c2ccc3ncc4c(c3c2)C2(CC2)C(=O)N4C)cc1NS(=O)(=O)c1ccccc1 [Example 43, N-(5-(3′-Methyl-2′-oxo-2′,3′-dihydrospiro [cyclopropane-1,1′-pyrrolo[2,3-c]quinolin]-8′-yl)-2-(2-(methylamino)ethoxy)pyridin-3-yl) benzenesulfonamide] | 9.00 to 9.30 | 7.00 to 9.00 |  | 
4 | CN1C(=O)C2(CCC2)c2c1cnc1ccc(-c3cnc(OCCCN4CCOCC4)c(NS(=O)(=O)c4ccccc4)c3)cc21 [Example 131, N-(5-(3′-Methyl-2′-oxo-2′,3′-dihydrospiro[cyclobulane-1,1′-pyrrolo[2,3-c]quinolin]-8′-yl)-2-(3-morpholinopropoxy)pyridin-3-yl)benzenesulfonamide hydrochloride] | 7.00 to 9.00 | 7.00 to 9.00 |  | 
5 | Cc1ccc(S(=O)(=O)Nc2cc(-c3cc4c5c(cnc4cc3F)N(C)C(=O)C53CCC3)cnc2N2CC(N(C)C)C2)cc1 [Example 323, N-(2-(3-(Dimethylamino)azetidin-1-yl)-5-(7′-fluoro-3′-methyl-2′-oxo-2′,3′-dihydrospiro[cyclobutane-1,1′-pyrrolo[2,3-c]quinolin]-8′-yl)pyridin-3-yl)-4-methylbenzenesulfonamide hydrochloride] | 7.00 to 9.00 | 7.00 to 9.00 |  | 
6 | CN1C(=O)C2(CCC2)c2c1cnc1ccc(-c3cnc(OCCCN4CCCCC4)c(NS(C)(=O)=O)c3)cc21 [Example 225, N-(5-(3′-Methyl-2′-oxo-2′,3′-dihydrospiro[cyclobutane-1,1′-pyrrolo[2,3-c]quinolin]-8′-yl)-2-(3-(piperidin-1-yl)propoxy)pyridin-3-yl)methanesulfonamide] | > 9.30 | 7.00 to 9.00 |  | 
7 | COCCN(C)CCCOc1ncc(-c2ccc3ncc4c(c3c2)C2(CCC2)C(=O)N4C)cc1NS(C)(=O)=O [Example 278, N-(2-(3-((2-Methoxyethyl)(methyl)amino)propoxy)-5-(3′-methyl-2′-oxo-2′,3′-dihydrospiro[cyclobutane-1,1′-pyrrolo[2,3-c]quinolin]-8′-yl)pyridin-3-yl)methanesulfonamide] | 7.00 to 9.00 | 9.00 to 9.30 |  | 
8 | CN1CCN(c2ncc(-c3ccc4ncc5c(c4c3)C3(CCC3)C(=O)N5C)cc2NS(=O)(=O)C2CC2)CC1 [Example 227, N-(5-(3′-Methyl-2′-oxo-2′,3′-dihydrospiro[cyclobutane-1,1′-pyrrolo[2,3-c]quinolin]-8′-yl)-2-(4-methylpiperazin-1-yl)pyridin-3-yl)cyclopropanesulfonamide hydrochloride] | > 9.30 | 9.00 to 9.30 |  | 
9 | CCCS(=O)(=O)Nc1cc(-c2ccc3ncc4c(c3c2)C2(CCC2)C(=O)N4C)cnc1OCCCN(C)C [Example 241, N-(2-(3-(Dimethylamino)propoxy)-5-(3′-methyl-2′-oxo-2′,3′-dihydrospiro [cyclobutane-1,1′-pyrrolo[2,3-c]quinolin]-8′-yl)pyridin-3-yl)propane-1-sulfonamide] | 7.00 to 9.00 | 7.00 to 9.00 |  | 
10 | CO[C@H]1C[C@@]2(C1)C(=O)N(C)c1cnc3cc(F)c(-c4cnc(N5CCC(N6CCCCC6)CC5)c(NS(C)(=O)=O)c4)cc3c12 [Example 392] |  |  | 7.00 to 9.00 | 7.00 to 9.00
11 | CN1C(=O)C2(CC2)c2c1cnc1ccc(-c3cnc(N4CCC(N5CCCCC5)CC4)c(NS(=O)(=O)c4ccccc4)c3)cc21 [Example 213, N-(2-([1,4′-Bipiperidin]-1′-yl)-5-(3′-methyl-2′-oxo-2′,3′-dihydrospiro[cyclopropane-1,1′-pyrrolo[2,3-c]quinolin]-8′-yl)pyridin-3-yl)benzenesulfonamide methanesulfonate] | 7.00 to 9.00 | 7.00 to 9.00 |  | 
12 | CN1C(=O)C2(CCC2)c2c1cnc1cc(F)c(-c3cnc(OCCCN4CCC(F)CC4)c(NS(C)(=O)=O)c3)cc21 [Example 297, N-(5-(7′-Fluoro-3′-methyl-2′-oxo-2′,3′-dihydrospiro[cyclobutane-1,1′-pyrrolo[2,3-c]quinolin]-8′-yl)-2-(3-(4-fluoropiperidin-1-yl)propoxy)pyridin-3-yl)methanesulfonamide hydrochloride] | 7.00 to 9.00 | 7.00 to 9.00 |  | 
13 | CC(C)NCCOc1ncc(-c2cc3c4c(cnc3cc2F)N(C)C(=O)C42CN(C3CCC3)C2)cc1NS(C)(=O)=O [Example 497, N-(5-(1-Cyclobutyl-7′-fluoro-3′-methyl-2′-oxo-2′,3′-dihydrospiro[azetidine-3,1′-pyrrolo[2,3-c]quinolin]-8′-yl)-2-(2-(isopropylamino)ethoxy)pyridin-3-yl)methanesulfonamide hydrochloride] |  |  | 7.00 to 9.00 | 7.00 to 9.00
14 | CN(C)CCCOc1ncc(-c2ccc3ncc4c(c3c2)C2(CCC2)C(=O)N4C)cc1NS(=O)(=O)c1ccc(F)c(C#N)c1 [Example 159, 3-Cyano-N-(2-(3-(dimethylamino)propoxy)-5-(3′-methyl-2′-oxo-2′,3′-dihydrospiro [cyclobutane-1,1′-pyrrolo[2,3-c]quinolin]-8′-yl)pyridin-3-yl)-4-fluorobenzene-sulfonamide hydrochloride] | 9.00 to 9.30 | 9.00 to 9.30 |  | 
15 | CN(C)CCCOc1ncc(-c2ccc3ncc4c(c3c2)C2(CC2)C(=O)N4CC2COC2)cc1NS(=O)(=O)c1ccccc1 [Example 37, N-(2-(3-(Dimethylamino)propoxy)-5-(3′-(oxetan-3-ylmethyl)-2′-oxo-2′-3′-dihydrospiro [cyclopropane-1,1′-pyrrolo[2,3-c]quinolin]-8′-yl)pyridin-3-yl)benzenesulfonamide] | 7.00 to 9.00 | 7.00 to 9.00 |  | 
16 | CN1C(=O)C2(CCC2)c2c1cnc1ccc(-c3cnc(N4CCC(N5CCCCC5)CC4)c(NS(=O)(=O)c4ccccc4)c3)cc21 [Example 155, N-(2-([1,4′-Bipiperidin]-1′-yl)-5-(3′-methyl-2′-oxo-2′,3′-dihydrospiro[cyclobulane-1,1′-pyrrolo[2,3-c]quinolin]-8′-yl)pyridin-3-yl)benzenesulfonamide hydrochloride] | 9.00 to 9.30 | 7.00 to 9.00 |  | 
17 | CN1C(=O)C2(CCC2)c2c1cnc1ccc(-c3cnc(OCCCN4CCCC(O)C4)c(NS(C)(=O)=O)c3)cc21 (centres unmarked) [Example 270, N-(2-(3-(3-Hydroxypiperidin-1-yl)propoxy)-5-(3′-methyl-2′-oxo-2′,3′-dihydrospiro[cyclobutane-1,1′-pyrrolo[2,3-c]quinolin]-8′-yl)pyridin-3-yl)methanesulfonamide] | 7.00 to 9.00 | 7.00 to 9.00 |  | 
18 | CN1C(=O)C2(CCC2)c2c1cnc1cc(F)c(-c3cnc(N4CCC(N5CCCCC5)CC4)c(NS(C)(=O)=O)c3)cc21 [Example 358, N-(2-([1,4-Bipiperidin]-1′-yl)-5-(7′-fluoro-3′-methyl-2′-oxo-2′,3′-dihydrospiro[cyclobutane-1,1′-pyrrolo[2,3-c]quinolin]-8′-yl)pyridin-3-yl)methanesulfonamide hydrochloride] |  |  | 7.00 to 9.00 | 9.00 to 9.30
19 | CC(C)NCCOc1ncc(-c2cc3c4c(cnc3cc2F)N(C)C(=O)C42CN(c3ccc(C(C)C)cc3)C2)cc1NS(C)(=O)=O [Example 530, N-(5-(7′-Fluoro-1-(4-isopropylphenyl)-3 methyl-2′-oxo-2′,3′-dihydrospiro [azetidine-3,1′-pyrrolo[2,3-c]quinolin]-8′-yl)-2-(2-(isopropylamino)ethoxy)pyridin-3-yl)methanesulfonamide] |  |  | 9.00 to 9.30 | 7.00 to 9.00

From patent publication US12187742B2 (XRAD Therapeutics, Inc., priority 2018, dated 2025)
